Laboratory results taken from patent US11275086B2 (priority 2010, dated 2022).
Where two headings read alike, the source gives them in different places.

Tested on: MTB specific T CD4+ lymphocytes
Assay type: cell-based, human
Settings: for positive tests / evaluable subjects: Microbiologically checked TB patients (before therapy start) / positive tests / evaluable subjects: Recently MTB exposed subjects: anergic subjects excluded

Row | Substance | positive tests / evaluable subjects: BCG-vaccinated controls (BCG-vaccinated controls) | positive tests / evaluable subjects: Microbiologically checked TB patients (before therapy start) | positive tests / evaluable subjects: Recently MTB exposed subjects | positive tests / evaluable subjects: Sanitary workers | positive tests / evaluable subjects: BCG-vaccinated controls | sensitivity compared with ESAT-6 derived control peptide (result in words)
1 | AVIVRSELLTQYL (listed as Mycobacterium tuberculosis) [Peptide #2, peptide of Rv1251c] | 0/15 | 11/55 | 8/61 | 1/21 | – | –
2 | ELMARAAVLGSAH (listed as Mycobacterium tuberculosis) [Peptide #6, peptide of Rv1251c] | 0/15 | 14/55 | 6/61 | 3/21 | – | –
3 | GEIIFISGRLNGaa (GEIIFISGRLNGAA; listed as Mycobacterium tuberculosis) [Peptide #5, peptide of Rv0724A] | 0/15 | 18/55 | 11/61 | 5/21 | – | –
4 | GSVRQLPSVLKPPLITLRTLTLSG (listed as Mycobacterium tuberculosis) [Peptide #3, peptide of Rv3479] | – | 27/55 | 20/61 | 7/21 | 0/15 | elevated sensitivity comparable, if not more elevated, to multiepitope ESAT-6 protein derived control peptide
5 | RPVRRVLLFVVPSSGPAP (listed as Mycobacterium tuberculosis) [Peptide #4, peptide of Rv3479] | – | 10/55 | 13/61 | 6/21 | 0/15 | –
6 | TAWITAVVPGLMV (listed as Mycobacterium tuberculosis) [Peptide #1, peptide of Rv1478 (Consensus VIR)] | – | 12/55 | 14/61 | 6/21 | 0/15 | –
